Test results published in paper PMC8319603, “Developing C2-Aroyl Indoles as Novel Inhibitors of IDO1 and Understanding Their Mechanism of Inhibition via Mass Spectroscopy, QM/MM Calculations and Molecular Dynamics Simulation” (Frontiers in Chemistry, 2021).
≈ marks a conversion by molar mass, not a printed value. Where “and” joins values, the source holds several entries; their conditions need not be identical. Equal entries are not always repeated.

What was measured:
[1] = molecular target: T1, recombinant protein of human TDO2 enzyme (Homo sapiens, UniProt P48775); test: TDO2 enzymatic assay in vitro (kynurenine formation, absorbance 492 nm); format: biochemical; conditions: read-out: IC50 against TDO2
T1 construct: purchased Biovision CSB-YP023351HU
T1 sequence (P48775 whole entry): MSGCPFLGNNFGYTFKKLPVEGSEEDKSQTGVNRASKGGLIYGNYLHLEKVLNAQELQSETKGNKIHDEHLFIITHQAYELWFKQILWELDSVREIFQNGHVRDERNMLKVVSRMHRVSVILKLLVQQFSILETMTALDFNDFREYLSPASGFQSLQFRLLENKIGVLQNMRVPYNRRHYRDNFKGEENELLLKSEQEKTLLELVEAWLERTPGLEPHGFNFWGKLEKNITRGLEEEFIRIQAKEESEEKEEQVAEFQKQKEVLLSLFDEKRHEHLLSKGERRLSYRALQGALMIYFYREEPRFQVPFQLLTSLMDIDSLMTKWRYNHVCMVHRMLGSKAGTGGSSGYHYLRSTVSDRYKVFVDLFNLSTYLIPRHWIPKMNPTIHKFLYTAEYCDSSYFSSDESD
Experimental: The recombinant human IDO/TDO protein were purchased from Biovision (Catalog no.: P1096 human recombinant IDO1 and CSB-YP023351HU human recombinant TDO2). All the other HPLC grade solvent were purchased from Merck Pvt. Ltd. The IDO/TDO assays were performed according to the reported procedures.1 and 2, the details of which is mentioned in the SI.
20 µL of IDO1/TDO2 protein (1µg/ml concentration) was added and incubates for 10 min. After that 20 µL of 2 mM L-tryptophan was added and then treated with different test compounds concentration […]
The plate was then sealed well for 2hr incubation process at 37°C. After incubation, 40 µL of 30% TCA solution was added and again incubated for 15 min at 60 °C, the samples were centrifuged for 15 min at 13000 rpm at 4 °C. The 100 µL of supernatant was transferred in fresh 96 well plate and treated with 100 µL of freshly prepared 2% Ehlrich reagent which was then analyzed by absorbance plate reader at 492 nm to measure the extent of kynurenine formation. The DMSO content in the sample was 0.005 %. The final concentration of the compound in deep well plate was 5 µM. The IC50 values were calculated in triplicate by using GraphPadPrism […]
1. Water was substituted with L-tryphtophan
2. Water was substituted with L-tryhtophan and rhIDO/ rhTDO protein.
A = IDO activity in presence of inhibitor

[2] = molecular target: T2, hIDO1 (ferric-IDO1 and deoxy ferrous-IDO1) (Homo sapiens, UniProt P14902); test: UV-Vis absorption study of ligand binding to IDO1 (Soret band); conditions: ligand 25 µM, IDO1 1 µM, pH 6.5; 414 nm without ligand
T2 construct: purchased Biovision P1096
T2 sequence (P14902 whole entry): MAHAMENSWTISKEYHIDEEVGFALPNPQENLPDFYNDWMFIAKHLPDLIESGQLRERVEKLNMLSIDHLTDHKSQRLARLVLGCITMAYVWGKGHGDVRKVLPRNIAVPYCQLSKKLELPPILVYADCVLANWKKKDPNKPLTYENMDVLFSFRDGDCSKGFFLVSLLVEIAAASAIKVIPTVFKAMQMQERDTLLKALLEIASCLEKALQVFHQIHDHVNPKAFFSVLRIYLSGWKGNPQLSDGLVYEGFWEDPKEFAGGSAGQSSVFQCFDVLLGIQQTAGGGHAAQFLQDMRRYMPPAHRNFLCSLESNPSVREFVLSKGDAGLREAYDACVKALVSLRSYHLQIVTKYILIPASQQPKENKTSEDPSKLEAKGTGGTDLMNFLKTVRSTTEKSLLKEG
Experimental: All the measurements of binding of compound and enzyme were recorded at room temperature using an Agilent Cary 8454 UV-Vis diode array spectrophotometer with 1 cm light path. The experiments were performed in 50 mM potassium phosphate buffer pH- 6.5 with IDO1 protein concentration of 1 µM and compound concentration of 25 µM was incubate for 3 h at 37°C. The deoxy-form of protein was prepared by pre-purged with nitrogen gas and adding […] (∼5 fold excess) in protein with potassium phosphate system.

Kinetic solubility = format: physicochemical; conditions: for solubility kinetic at 18 h: phosphate buffered saline, aqueous buffer, kinetic from dmso stock, at 1 mg/ml in phosphate buffer at pH 7.4, read-out: Kinetic solubility of the compounds
Excerpt: (§1) For the DMPK studies of the compound 8a-d we used rat as well as human plasmas. Rat plasma was purchased from Hylasco Biotechnology Pvt. Ltd.™ Hyderabad, India. We have not performed any in vivo experiments for this manuscript neither for animals nor for humans. […] Also please note the blood plasma was obtained from the blood of Dr Srinivas R Maddi, who donated it and is the co-author of this article. The DMPK studies were supplemented by kinetic solubility, Log p and Log D determinations, PAMPA permeability, Metabolic and Plasma stability in rat and human, and finally the plasma folding in rat and human. A thorough discussion of each step is mentioned in the supplementary information. […]
Kinetic solubility: Solubility of the compounds was dete rmined by incubating the compound at 500
µM concentration in phosphate buffer saline, pH7.4 for 18 hours with constant vortex at 500 rpm.
After incubation period, samples were centrifuged and supernatant was injected into HPLC to
determine the solubility. […]

[3] = Log P determination (octanol/water); format: physicochemical
Excerpt: as §1
Octanol and buffer layers were analysed by HPLC -UV by
adjusting the needle height for each Octanol and buffer and the amount of compound distributed i nto

PAMPA permeability = format: in vitro ADME; conditions: for Papp at 5 h, 100 µM: phosphate buffer at pH 7.4
Excerpt: as §1
PAMPA permeability: PAMPA permeability was determined by addition of the compounds to the donor wells at 100µM concentration in a total volume of 300µL in triplicates. The acceptor wells were filled with 200µL of phosphate buffered saline, pH 7.4, while maintaining 5% DMSO concentration on both sides. The plates were sandwiched and incubated for 5hours at room temperature. After incubation, 150µL of the sample from both donor and receiver wells was collected and centrifuged at […]
4000rpm for 20 minutes. […]

[4] = Stability in human plasma; format: in vitro ADME
Excerpt: as §1
(§2) Stability in rat and human plasma: Plasma stability is defined as the percentage of parent compound lost over time. The frozen plasma was thawed at room temperature and centrifuged at 1400 rpm 4 ℃, for 15 minutes. Approximately 90% of the clear supernatant fraction was transferred to a separate tube and was used for assay. The incubation mixtures consisted of human and rat palsma and compound (1 μM) or positive control (propanthelin, 1 μM) and incubated for 120 min at 37℃ in shaker with 500 rpm. All reactions were terminated using 200 μL of ice-cold acetonitrile containing internal standard (150 ng/mL of telmisartan) at 0, 15, 30, 60 and 120 min and centrifuged at 4000 rpm (Eppendorf, Germany) for 20min. The supernatants thus obtained were analyzed on LC-MS/MS to monitor the disappearance of compound. […]

Stability in rat plasma = format: in vitro ADME
Excerpt: as §1, §2

[5] = Metabolic stability in rat liver microsomes; format: in vitro ADME; conditions: for Rat liver microsomal stability % QH (hepatic extraction ratio): rat liver microsomes; for Clearance in animal microsomes: animal microsomal data among rat, dog and monkey
Experimental: Metabolic stability in mouse, rat and human liver microsomes: Metabolic stability was defined as the percentage of parent compound lost over time in the presence of a metabolically active test system.
The incubation mixtures consisted of liver microsomes 1.0 mg microsomal protein /mL , compound 1 uM or positive control verapamil, 1 uM . The reactions were initiated by adding 1 mM NADPH.
Reactions without NADPH at 0 and 60 min were also incubated to rule out non-NADPH metabolism or chemical instability in the incubation buffer. All reactions were terminated using 200 uL of ice-cold acetonitrile containing internal standard 200 ng/mL of telmisartan at 0, 5, 15, 30 and 60 min. The vials were centrifuged at 4000 rpm for 20 min. The supernatants thus obtained were analyzed on LC-MS/MS to monitor the disappearance of compound. […]

[6] = Metabolic stability in dog liver microsomes; format: in vitro ADME

| Structure (SMILES) | IC50 [1] | Soret band of deoxy ferrous-IDO1 in presence of ligand [2] | Solubility (Kinetic solubility) | solubility kinetic at 18 h (Kinetic solubility) | logP [3] | Permeability (PAMPA permeability) | Papp at 5 h, 100 µM (PAMPA permeability) | Human plasma stability %Ge remaining after 120 min [4] | Rat plasma stability %Ge remaining after 120 min (Stability in rat plasma) | Rat liver microsomal stability % QH (hepatic extraction ratio) [5] | Dog liver microsomal stability % QH (hepatic extraction ratio) [6] | Clearance in animal microsomes [5] |
| --- | --- | --- | --- | --- | --- | --- | --- | --- | --- | --- | --- | --- |
| CC(=O)NCCc1c(C(=O)c2cc(C(F)(F)F)cc(C(F)(F)F)c2)[nH]c2ccccc12 [8a] | 6.95 µM | 407 nm and 430 nm | very good | 64.1 µg/mL (≈ 145 µM) | > 3.5 | very good | 6.8 ×10⁻⁶ cm/s | 84.5% | 84.5% | 12.6% | 69% | – |
| CC(=O)NCCc1c(C(=O)c2ccc([N+](=O)[O-])cc2)[nH]c2ccccc12 [8d] | 9.16 µM | 407 nm | very good | 56.9 µg/mL (≈ 162 µM) | 2.67 | very good | 15.4 ×10⁻⁶ cm/s | 85.0% | 91.3% | 2.2% | 39% | low to moderate clearance |
| COC(=O)NCCc1c(C(=O)c2ccccc2)[nH]c2ccccc12 [8e] | 16.8 µM | 407 nm | very good | 67.4 µg/mL (≈ 209 µM) | 2.88 | very good | 32.3 ×10⁻⁶ cm/s | 108.3% | 96.3% | 14.9% | 67% | low to moderate clearance |
